Experimental data: ChEMBL document CHEMBL1817639, “Refinement of arylthiosemicarbazone pharmacophore in inhibition of mushroom tyrosinase” (Eur J Med Chem, 2011)

Target: T1, Tyrosinase (Agaricus bisporus) (UniProt O42713)
T1 sequence (whole entry): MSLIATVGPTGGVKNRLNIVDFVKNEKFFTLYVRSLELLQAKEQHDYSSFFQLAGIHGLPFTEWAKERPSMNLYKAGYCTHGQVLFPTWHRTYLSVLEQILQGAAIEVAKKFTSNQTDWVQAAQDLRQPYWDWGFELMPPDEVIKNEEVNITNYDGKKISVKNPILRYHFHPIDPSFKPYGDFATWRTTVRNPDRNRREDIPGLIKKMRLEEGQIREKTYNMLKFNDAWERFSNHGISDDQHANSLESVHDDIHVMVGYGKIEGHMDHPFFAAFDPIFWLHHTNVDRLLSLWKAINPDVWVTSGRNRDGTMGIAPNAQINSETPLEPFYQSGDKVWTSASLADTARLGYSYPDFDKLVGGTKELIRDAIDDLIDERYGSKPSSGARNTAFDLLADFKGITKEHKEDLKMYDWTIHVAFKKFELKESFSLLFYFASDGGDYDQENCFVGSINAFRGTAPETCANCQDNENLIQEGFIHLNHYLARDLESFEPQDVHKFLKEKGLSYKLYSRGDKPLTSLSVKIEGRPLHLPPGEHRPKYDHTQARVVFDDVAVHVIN
Assay: Ratio IC50 for Kojic acid to compound for diphenolase activity of mushroom tyrosinase

With `NC(=S)N/N=C/c1cc(=O)c(O)co1` as the compound, how does the Ratio IC50 read?
The Ratio IC50 was 9.

Test system: not listed separately
Assay: Dissociation constant, pKa of the compound
Format: physicochemical

For `N/C(S)=N/N=C/c1ccccn1`, which pKa is on record?
The pKa was 5.

With `NC(=S)N/N=C/c1ccco1` as the compound, how does the pKa read?
Its pKa is 0.5.

Which pKa does the source give for `NC(=S)N/N=C/c1ccc[nH]1` here?
Its pKa is 0.5.

Target: T2, Tyrosinase (Agaricus bisporus, UniProt O42713)
T2 sequence (O42713 whole entry): T1 sequence (whole entry)
Description: Inhibition of diphenolase activity of mushroom tyrosinase using L-DOPA as substrate preincubated for 5 mins by spectroscopic method

For `NC(=S)N/N=C/c1ccc2ccccc2c1`, which IC50 is on record?
The IC50 was 1100 µM.

For `Cn1ccc2cc(/C=N/NC(N)=S)ccc21`, which IC50 is on record?
The IC50 was over 2000 µM.

For `NC(=S)N/N=C/c1ccc2ccccc2n1`, which IC50 is on record?
Its IC50 is 70 µM.

For `NC(=S)N/N=C/c1cc(=O)c(O)co1`, which IC50 is on record?
The IC50 was 11 µM.

Which IC50 does the source give for `NC(=S)N/N=C/c1c[nH]c2ccccc12` here?
The IC50 was 600 µM.

For `NC(=S)N/N=C/c1cccc(F)c1`, which IC50 is on record?
Its IC50 is 9 µM.

For `NC(=S)N/N=C/c1ccc(F)cc1`, which IC50 is on record?
The IC50 was 11 µM.

With `N/C(S)=N/N=C/c1ccccn1` as the compound, how does the IC50 read?
Its IC50 is 45 µM.

Which IC50 does the source give for `NC(=S)N/N=C/Cc1ccccc1` here?
Its IC50 is 7 µM.

Which IC50 does the source give for `Cn1cc(/C=N/NC(N)=S)c2ccccc21` here?
The IC50 was over 2000 µM.

Which IC50 does the source give for `Cn1c(/C=N/N=C(/N)S)cc2ccccc21` here?
Its IC50 is 1700 µM.

For `NC(=S)N/N=C/c1ccco1`, which IC50 is on record?
Its IC50 is 6 µM.

Which IC50 does the source give for `NC(=S)N/N=C/c1ccc2[nH]ccc2c1` here?
The IC50 was over 2000 µM.

For `NC(=S)N/N=C/c1ccccc1F`, which IC50 is on record?
Its IC50 is 32 µM.

Which IC50 does the source give for `NC(=S)N/N=C/CCc1ccccc1` here?
Its IC50 is 400 µM.

With `NC(=S)N/N=C/c1cccc2ccccc12` as the compound, how does the IC50 read?
The IC50 was 12 µM.

For `COc1coc(/C=N/NC(N)=S)cc1=O`, which IC50 is on record?
Its IC50 is over 2000 µM.

With `Cc1[nH]c2ccccc2c1/C=N/NC(N)=S` as the compound, how does the IC50 read?
Its IC50 is over 2000 µM.

With `NC(=S)N/N=C/c1ccc[nH]1` as the compound, how does the IC50 read?
The IC50 was 8 µM.

For `NC(=S)N/N=C/c1cc2ccccc2[nH]1`, which IC50 is on record?
Its IC50 is 402 µM.
